Earlier results in US6471968B1, “Multifunctional nanodevice platform” (Regents of the University of Michigan, priority 2000, dated 2002).

System: solid tumor models
Conditions: solid tumor models for which cisplatin has no effect

## N.N.[Cl][Pt][Cl] [cisplatin]
  in vivo activity in solid tumor models: no effect
